Columns and labels:
Format in all cases: in vivo
Lolium rigidum (LOLRI) [1] = assay: B. Herbicidal post-emergence efficacy, LOLRI
Method: (§1) Seeds of mono- and dicotyledonous weed plants were placed in plastic pots in sandy loam soil (doubly sown with in each case one species of mono- or dicotyledonous weed plants per pot), covered with soil and cultivated in a greenhouse under controlled growth conditions. 2 to 3 weeks after sowing, the test plants were treated at the one-leaf stage. The compounds of the invention, formulated in the form of wettable powders (WP) or as emulsion concentrates (EC), were applied onto the green parts of the plants as aqueous suspension or emulsion with addition of 0.5% additive at a water application rate of 600 liters per hectare (converted). After the test plants had been kept in the greenhouse under optimum growth conditions for about 3 weeks, the activity of the preparations was rated visually in comparison to untreated controls.
(§2) For example, • 100% efficacy=plants have died, • 0% efficacy=like untreated control plants
(§3) Tables B1a to B12c below show the effects of selected inventive compounds of the general formula (I) according to table 1 on various harmful plants at an application rate corresponding to 1280 g/ha or less, which were obtained by the experimental procedure mentioned above.

[2] = system: Pharbitis purpurea (PHBPU); assay: C. Herbicidal pre-emergence efficacy, PHBPU; conditions: scored after about 3 weeks
Text: (§4) Seeds of monocotyledonous and dicotyledonous weed plants and crop plants were placed in plastic or organic planting pots and covered with soil. The compounds of the invention, formulated in the form of wettable powders (WP) or as emulsion concentrates (EC), were then applied to the surface of the covering soil as aqueous suspension or emulsion with addition of 0.5% additive at a water application rate equivalent to 600 l/ha (converted). After the treatment, the pots were placed in a greenhouse and kept under good growth conditions for the test plants. After about 3 weeks, the efficacy of the preparations was scored visually in comparison with untreated controls as percentages. For example, • 100% efficacy=plants have died, • 0% efficacy=like untreated control plants.
Tables C1a to C14b below show the effects of selected compounds of the general formula (I) according to table 1 on various harmful plants at an application rate corresponding to 320 g/ha or less, which were obtained by the experimental procedure mentioned above.

Oryza sativa (ORYSA) [3] = assay: F. Post-emergence effect on useful plants, ORYSA; conditions: useful plant
Method: (§5) Seeds of monocotyledonous and dicotyledonous weeds and crop plants were placed in sandy loam in plastic or organic planting pots, covered with soil and cultivated in a greenhouse under controlled growth conditions. 2 to 3 weeks after sowing, the test plants were treated at the one-leaf stage. The compounds of the invention, formulated in the form of wettable powders (WP) or as emulsion concentrates (EC), were then sprayed onto the green parts of the plants as aqueous suspension or emulsion with addition of 0.5% additive at a water application rate of 600 l/ha (converted). After the test plants had been kept in the greenhouse under optimum growth conditions for about 3 weeks, the activity of the preparations was rated visually in comparison to untreated controls.
(§6) For example, • 100% efficacy=plants have died, • 0% action=like untreated control plants.
Tables F1a to F4 below show the effects of selected compounds of the general formula (I) according to table 1 on various useful plants at an application rate corresponding to 320 g/ha or less, which were obtained by the experimental procedure mentioned above.

[4] = system: Alopecurus myosuroides (ALOMY); assay: E. Herbicidal post-emergence efficacy, ALOMY
Method: as §5, §6
(§7) Tables E1a to E12b below show the effects of selected compounds of the general formula (I) according to table 1 on various harmful plants at an application rate corresponding to 320 g/ha or less, which were obtained by the experimental procedure mentioned above.

Oryza sativa (ORYSA) [5] = assay: D. Pre-emergence effect on useful plants, ORYSA; conditions: useful plant
Text: as §4
(§8) Tables D1a to D5b below show the effects of selected compounds of the general formula (I) according to table 1 on various useful plants at an application rate corresponding to 320 g/ha or less, which were obtained by the experimental procedure mentioned above.

Lolium rigidum (LOLRI) [6] = assay: E. Herbicidal post-emergence efficacy, LOLRI; conditions: application rate 320 g/ha
Method: as §5, §6, §7

[7] = system: Matricaria inodora (MATIN); assay: B. Herbicidal post-emergence efficacy, MATIN; conditions: 1280 g/ha
Method: as §1, §2, §3

Brassica napus (BRSNW) = assay: D. Pre-emergence effect on useful plants, BRSNW; conditions: useful plant
Text: as §4, §8

Glycine max (GLXMA) = assay: D. Pre-emergence effect on useful plants, GLXMA; conditions: useful plant
Outline: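 Seeds sown in pots and covered with soil; WP or EC formulations sprayed on the soil surface as aqueous suspension/emulsion with 0.5% additive at 600 l/ha water. Plants grown in greenhouse; crop damage scored visually after about 3 weeks as % versus untreated controls (100% = dead, 0% = like control).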

Row | Structure (SMILES) | Post-emergence efficacy against LOLRI (Lolium rigidum (LOLRI) [1]; 1280 g/ha) | Pre-emergence efficacy against PHBPU ([2]; 320 g/ha) | Post-emergence efficacy against ORYSA in % (Oryza sativa (ORYSA) [3]; application rate 80 g/ha) | Post-emergence efficacy against ALOMY in % ([4]; application rate 320 g/ha) | also measured
1 | O=S(=O)(CCCCl)Oc1ccccc1Oc1ncc(Cl)cn1 [Example I-2] | 90% | 90% | 0% | 90% | 
2 | CCCS(=O)(=O)Oc1ccccc1Oc1ncc(Cl)cn1 [Example I-3] |  | 80% | 10% | 80% | Pre-emergence efficacy against ORYSA in % (Oryza sativa (ORYSA) [5]; application rate 80 g/ha): 20%
3 | O=S(=O)(CCCCl)Oc1ccccc1Oc1ncc(F)cn1 [Example I-5] |  | 80% | 20% | 90% | Post-emergence efficacy against LOLRI in % (Lolium rigidum (LOLRI) [6]): 90%; Post-emergence efficacy against MATIN [7]: 90%; Post-emergence efficacy against ALOMY in % ([4]; application rate 80 g/ha): 80%
4 | CCCCS(=O)(=O)Oc1ccccc1Oc1ncc(Cl)cn1 [Example I-6] |  | 80% |  | 90% | 
5 | CC(C)CS(=O)(=O)Oc1ccccc1Oc1ncc(Cl)cn1 [Example I-7, [2-(5-Chloropyrimidin-2-yl)oxyphenyl] 2-methylpropane-1-sulfonate] |  |  |  | 90% | 
6 | O=S(=O)(CCC(F)(F)F)Oc1ccccc1Oc1ncc(Cl)cn1 [Example I-8] | 90% | 80% | 20% | 90% | Post-emergence efficacy against LOLRI in % (Lolium rigidum (LOLRI) [6]): 80%
7 | O=S(=O)(CCl)Oc1ccccc1Oc1ncc(Cl)cn1 [Example I-9] |  |  | 10% |  | Pre-emergence efficacy against ORYSA in % (Oryza sativa (ORYSA) [5]; application rate 80 g/ha): 0%; Post-emergence efficacy against ORYSA in % (Oryza sativa (ORYSA) [3]; application rate 320 g/ha): 10%
8 | O=S(=O)(CCCC(F)(F)F)Oc1ccccc1Oc1ncc(Cl)cn1 [Example I-10] | 100% | 100% |  | 100% | Post-emergence efficacy against LOLRI (Lolium rigidum (LOLRI) [1]; 320 g/ha): 90%; Post-emergence efficacy against LOLRI in % (Lolium rigidum (LOLRI) [6]): 90%; Pre-emergence efficacy against PHBPU ([2]; 80 g/ha): 100%; Post-emergence efficacy against ALOMY in % ([4]; application rate 80 g/ha): 90%
9 | Cc1cccc(OS(=O)(=O)CCCCl)c1Oc1ncc(Cl)cn1 [Example I-12] | 90% |  |  |  | Post-emergence efficacy against LOLRI (Lolium rigidum (LOLRI) [1]; 320 g/ha): 90%
10 | O=S(=O)(CCCCl)Oc1c(F)cccc1Oc1ncc(Cl)cn1 [Example I-14] | 100% |  |  | 90% | 
11 | O=S(=O)(CCCCCl)Oc1ccccc1Oc1ncc(Cl)cn1 [Example I-15] | 90% | 90% | 0% |  | Post-emergence efficacy against LOLRI (Lolium rigidum (LOLRI) [1]; 320 g/ha): 90%; Post-emergence efficacy against ORYSA in % (Oryza sativa (ORYSA) [3]; application rate 320 g/ha): 20%
12 | O=S(=O)(CC1CC1)Oc1ccccc1Oc1ncc(Cl)cn1 [Example I-23] |  | 80% | 0% | 80% | 
13 | CCCCCS(=O)(=O)Oc1ccccc1Oc1ncc(Cl)cn1 [Example I-24] | 90% |  | 0% |  | Pre-emergence efficacy against BRSNW in % (Brassica napus (BRSNW); application rate 80 g/ha): 0%; Pre-emergence efficacy against BRSNW in % (Brassica napus (BRSNW); application rate 320 g/ha): 0%; Pre-emergence efficacy against ORYSA in % (Oryza sativa (ORYSA) [5]; application rate 80 g/ha): 0%; Pre-emergence efficacy against ORYSA in % (Oryza sativa (ORYSA) [5]; application rate 320 g/ha): 20%; Post-emergence efficacy against ORYSA in % (Oryza sativa (ORYSA) [3]; application rate 320 g/ha): 0%
14 | CC(C)CCS(=O)(=O)Oc1ccccc1Oc1ncc(Cl)cn1 [Example I-25] | 90% |  | 0% |  | Pre-emergence efficacy against GLXMA in % (Glycine max (GLXMA); application rate 80 g/ha): 0%; Pre-emergence efficacy against ORYSA in % (Oryza sativa (ORYSA) [5]; application rate 80 g/ha): 0%
15 | Cc1cccc(Oc2ncc(Cl)cn2)c1OS(=O)(=O)CCC(F)(F)F [Example I-29] | 90% |  |  |  | 
16 | O=S(=O)(CCC(F)(F)F)Oc1c(Cl)cccc1Oc1ncc(Br)cn1 [Example I-32] | 90% |  |  |  | Pre-emergence efficacy against GLXMA in % (Glycine max (GLXMA); application rate 80 g/ha): 0%; Pre-emergence efficacy against GLXMA in % (Glycine max (GLXMA); application rate 320 g/ha): 0%
17 | O=S(=O)(CCCC(F)(F)F)Oc1c(Cl)cccc1Oc1ncc(Br)cn1 [Example I-34] |  |  |  |  | Pre-emergence efficacy against GLXMA in % (Glycine max (GLXMA); application rate 80 g/ha): 0%

— patent publication US20240174618A1, “SUBSTITUTED (2-HETEROARYLOXYPHENYL)SULFONATES, SALTS THEREOF AND THEIR USE AS HERBICIDAL AGENTS” (Bayer Aktiengesellschaft, priority 2021, published 2024)
